Results: patent US7208515B2, “Diphenylmethyl compounds useful as muscarinic receptor antagonists” (Theravance, Inc., priority 2004, dated 2007)

Experiments:
[1] = biological target: T1, hM2 receptor (CHO-K1 cells) (Homo sapiens, UniProt P08172); experiment: Blockade of agonist-mediated inhibition of cAMP accumulation; format: cell-based; details: CHO-K1 cells expressing the hM2 receptor; read-out: Ki value for blockade of oxotremorine-inhibition of forskolin-mediated cAMP accumulation
T1 construct: expressed in transfected cells; host or cells: CHO-K1 cells
T1 sequence (P08172 1-466): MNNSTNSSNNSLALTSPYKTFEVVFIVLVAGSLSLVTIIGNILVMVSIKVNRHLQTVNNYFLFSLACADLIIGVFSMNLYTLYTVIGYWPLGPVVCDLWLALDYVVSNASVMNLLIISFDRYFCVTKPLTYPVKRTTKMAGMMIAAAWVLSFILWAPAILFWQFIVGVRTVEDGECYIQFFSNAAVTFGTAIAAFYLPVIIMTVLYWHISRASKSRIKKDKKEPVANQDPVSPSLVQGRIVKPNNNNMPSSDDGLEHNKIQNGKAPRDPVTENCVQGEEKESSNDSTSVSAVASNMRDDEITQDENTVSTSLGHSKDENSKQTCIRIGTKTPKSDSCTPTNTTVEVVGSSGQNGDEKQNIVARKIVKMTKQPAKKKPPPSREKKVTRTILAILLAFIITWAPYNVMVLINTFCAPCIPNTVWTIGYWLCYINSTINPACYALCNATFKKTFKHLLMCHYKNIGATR
Protocol: A. Blockade of Agonist-Mediated Inhibition of cAMP Accumulation
In this assay, the functional potency of a test compound was determined by measuring the ability of the test compound to block oxotremorine-inhibition of forskolin-mediated cAMP accumulation in CHO-K1 cells expressing the hM2 receptor.
cAMP assays were performed in a radioimmunoassay format using the Flashplate Adenylyl Cyclase Activation Assay System with ^125I-cAMP (NEN SMP004B, PerkinElmer Life Sciences Inc., Boston, Mass.), according to the manufacturer's instructions.
Cells were rinsed once with dPBS and lifted with Trypsin-EDTA solution (0.05% trypsin/0.53 mM EDTA) as described in the Cell Culture and Membrane Preparation section above. […] The cell pellet was then re-suspended in 10 mL dPBS, and the cells were counted with a Coulter Z1 Dual Particle Counter (Beckman Coulter, Fullerton, Calif.). […]
Reactions were incubated for 10 minutes at 37° C. and stopped by addition of 100 μL ice-cold detection buffer. Plates were sealed, incubated overnight at room temperature and counted the next morning on a PerkinElmer TopCount liquid scintillation counter (PerkinElmer Inc., Wellesley, Mass.). The amount of cAMP produced (pmol/well) was calculated based on the counts observed for the samples and cAMP standards, as described in the manufacturer's user manual. […]

[2] = system: MCh-induced depressor responses; experiment: Methacholine-induced depressor responses in conscious guinea pigs; format: in vivo; details: guinea pig, inhalation
Description: Methacholine-Induced Depressor Responses in Conscious Guinea Pigs
Healthy, adult, male Sprague-Dawley guinea pigs (Harlan, Indianapolis, Ind.), weighing between 200 and 300 g were used in these studies. Under isoflurane anesthesia (to effect), animals were instrumented with common carotid artery and jugular vein catheters (PE-50 tubing). The catheters were exteriorized utilizing a subcutaneous tunnel to the subscapular area. All surgical incisions were sutured with 4-0 Ethicon Silk and the catheters locked with heparin (1000 units/mL). Each animal was administered saline (3 mL, SC) at the end of surgery as well as buprenorphine (0.05 mg/kg, IM). Animals were allowed to recover on a heating pad before being returned to their holding rooms.
Approximately 18 to 20 hours following surgery, the animals were weighed and the carotid artery catheter on each animal was connected to a transducer for recording arterial pressure. Arterial pressure and heart rate was recorded using a Biopac MP-100 Acquisition System. Animals were allowed to acclimate and stabilize for a period of 20 minutes.
Each animal was challenged with MCh (0.3 mg/kg, IV) administered through the jugular venous line and the cardiovascular response was monitored for 10 minutes. […] At 1.5 and 24 h post-dosing, the animals were re-challenged with MCh (0.3 mg/kg, IV) and the hemodynamic response was determined. […]

Ki [1]: < 100 nM
Structure (SMILES): CNCC(=O)NCCCCCN1CC[C@@H](C(C(N)=O)(c2ccccc2)c2ccccc2)C1 [Example 1]
apparent lung-selectivity index (ratio of anti-depressor ID50 to bronchoprotective ID50) [2]: greater than 5
